Values of other authors in US20250302889A1, “Ingestible Nutritive Compositions With Prebiotics, Probiotics, and Postbiotics” (First Day Life, Inc., priority 2024, published 2025).

Legend:
[1] = 24 hours; probiotics 10^8 CFUs, diclofenac sodium 150 mg/kg, single dose
[2] = 24 hours after injection, vs carrageenan control group
[3] = 24 hours after injection, vs carrageenan control group; remark: listed apart in the source

In the case of `O=C(O)Cc1ccccc1Nc1c(Cl)cccc1Cl` [diclofenac sodium], the inhibition of edema [1] is listed as “about 34%”, the motility test score [2] is listed as “scored significantly higher” and the “stair climbing activity (steps climbed)” value [3] is listed as “climbed significantly more steps”.
